Patent US10787448B2, “Indolizino [3,2-C] quinoline-based fluorescent probe” (SEOUL NATIONAL UNIVERSITY R & DB FOUNDATION, priority 2015, dated 2020)
pKd: −log10 of the molar value.

Experiments:
PDEδ [1] = molecular target: T1, PDEδ (Homo sapiens, UniProt O43924); assay: Titration using fluorescence polarization; type: binding; conditions: Table 9
T1 construct: made in house; host or cells: E. coli

[2] = test system: DNA oligomers (48 bp) tetO sequences; assay: Binding to DNA by fluorescence spectrophotometer; conditions: hybridized tetO DNA oligomers added, 1 minute incubation
Procedure: Using a fluorescence spectrophotometer, it was confirmed whether the indolizino[3,2-c]quinoline compound of the present invention binds to DNA. First, DNA oligomers (48 bp) used in the experiment are tetO sequences, and the base sequences thereof are as follows.
The same molarities of oligomers were mixed while being heated at 95° C. for 5 minutes and cooled to room temperature for 2 hours to hybridize, the fluorescence of each of the indolizino[3,2-c]quinoline compounds of the present invention was measured, a corresponding equivalent of DNA oligomer was added to a cuvette, and then incubated while blocking light for 1 minute to measure fluorescence again.

PDEδ [3] = molecular target: T1, PDEδ; assay: Titration using fluorescence polarization; type: binding; conditions: 0.5 μM compound, PDEδ protein from 0 to 32 μM
Procedure: To confirm whether the indolizino[3,2-c]quinoline compound can bind to a specific intracellular protein, in the presence of 0.5 μM of the indolizino[3,2-c]quinoline compound, titration was performed by increasing the concentration of the PDEδ protein from 0 to 32 μM to measure a polarization degree.

[4] = Analysis of optical characteristics (absorption, fluorescence emission, quantum yield) in solvents; type: physicochemical; conditions: for Fluorescence Emission Intensity / Peak emission wavelength λmax em(nm) / Relative fluorescence Emission Intensitynorm: H2O at 2 μM; for Peak emission wavelength λmax em(nm): excited at the longest absorption maxima; for Fluorescence quantum yield (Φ): Rhodamine 6G as a standard (Φ = 0.86 in water); for Relative fluorescence Emission Intensitynorm: normalized fluorescence intensity
Procedure, shortened: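 Optical properties of indolizinoquinoline compounds were examined in solvents. A 10 mM DMSO stock was diluted into the solvent, and fluorescence emission spectra were recorded at 20° C. on a JASCO FP-6500 spectrofluorometer. Absorption spectra were taken at room temperature on a Perkin Elmer Lamda 20 UV/VIS spectrometer. Fluorescence quantum yield (Φ) was determined.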

[5] = Photostability of fluorescence in aqueous solution or ethanol (natural light, blue light); type: physicochemical; conditions: aqueous solution
Procedure: As a candidate material that can be applied to a fluorescent probe, to confirm how long fluorescence persists in materials with high fluorescence intensity in an aqueous solution among the indolizino[3,2-c]quinoline compounds, photostability according to time in an aqueous solution or ethanol solvent was evaluated as follows.
First, fluorescence of a corresponding material was measured using a cuvette, and the fluorescence per time for the cuvette sample was remeasured until 6 to 7 hours in a natural light state so as to confirm fluorescence stability.
Further, from the above example, when the indolizino[3,2-c]quinoline compounds including the IQ 3, 4, 6 and 8 compounds in which the fluorescence is stably maintained in an aqueous solution for approximately 6 hours are represented by Formula X, some materials in which neither A, B, C nor D ring has a substituent were selected and irradiated with blue light in an aqueous solution, and then a stability experiment was carried out to confirm the maintenance of the fluorescence.

cells = assay: Co-staining / co-localization with DAPI, MitoTracker or LysoTracker; type: cell-based
HeLa cells = assay: Cell permeability: fluorescence imaging and live cell confocal imaging; type: cell-based; conditions: HeLa cells
Procedure: HeLa cells were seeded in a 96-well plate and incubated for 24 hours. The cells were treated with the indolizino[3,2-c]quinoline compounds, and incubated at 37° C. under a 5% CO2 condition for 30 minutes. After removal of the medium, the cells were washed with 1×DPBS. The washed cells were fixed with 4% formaldehyde at room temperature for 10 minutes, and washed with 1×DPBS. A cell image was screened using an Operetta HTS imaging system (PerkinElmer).
After HeLa cells were seeded to account for 70 to 80% of the area of a confocal dish (SPL life science) and overnight cultured, the indolizino[3,2-c]quinoline compounds (10 μM) prepared by mixing fresh DMEM after removal of the existing DMEM medium were dispensed, and the cells were incubated for 30 minutes to 1 hour at 37° C. Afterward, if needed, LysoTracker (50 nM) was mixed with DMEM to remove the existing medium and then dispensed to the cells, and the cells were incubated for 30 minutes at 37° C. After incubation, without washing, the cells were examined by a confocal laser microscope (Leica TCS SP8 SMD, Leica, Mannheim, Germany). However, when co-stained with a LysoTracker, the cells were washed with DPBS twice before the microscopy. […]

T1 sequence (O43924 whole entry): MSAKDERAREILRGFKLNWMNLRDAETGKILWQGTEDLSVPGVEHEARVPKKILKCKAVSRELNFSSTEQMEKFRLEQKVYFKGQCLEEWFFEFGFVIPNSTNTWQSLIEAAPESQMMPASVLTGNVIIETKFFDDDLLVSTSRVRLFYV

| Compound | kmax em(nm) (PDEδ [1]) | λabs(nm) (PDEδ [1]) | pKd (PDEδ [3]) | Fluorescence Emission Intensity [4] | Peak emission wavelength λmax em(nm) [4] [nm] | Relative fluorescence Emission Intensitynorm [4] | quantum yield (Φ) ([4]; DW, standard Rhodamine 6G) | quantum yield (Φ) ([4]; EtOH, standard Coumarin 153) | further results |
| --- | --- | --- | --- | --- | --- | --- | --- | --- | --- |
| COc1ccc(-c2nc3ccccc3c3cc4ccccn4c23)cc1 [compound 6] | 515 | 430 | 6.14 | 231.3 | 514.5 | 0.99 |  |  | shift of maximum emission wavelength on addition of DNA oligomer [2]: wavelength to longer wavelength; Absorption coefficient (cm^−1M^−1) [4]: 6547 cm^−1M^−1; Absorption wavelength λex(nm) [4]: 430 nm; Emission wavelength λem(nm) [4]: 515 nm; Maximum absorption wavelength λmax abs(nm) [4]: 430 nm; λem (nm) ([4]; DMF): 469 nm; λem (nm) ([4]; DMSO): 512 nm; λem (nm) ([4]; EtOH): 465 nm; λem (nm) ([4]; EtOH:CHCl3 = 1:5): 466 nm; λem (nm) ([4]; H2O): 511 nm; λem (nm) ([4]; MC): 467 nm; Fluorescence quantum yield (Φ) [4]: 0.121 |
| Brc1ccc(-c2nc3ccccc3c3cc4ccccn4c23)cc1 [compound 1] | 530 | 430 | 6.55 | 32.7 | 522 | 0.14 | 0.015 | 0.636 | Maximum absorption wavelength λmax abs(nm) [4]: 400 nm |
| c1ccc(-c2nc3ccccc3c3cc4ccccn4c23)cc1 [compound 4] | 515 | 430 | 6.30 | 55.0 | 519 | 0.24 | 0.039 | 0.779 | change in fluorescence intensity on addition of DNA oligomer [2]: Decrease in fluorescence intensity |
| Cc1ccc(-c2nc3ccccc3c3cc4ccccn4c23)cc1 [compound 3] | 526 | 440 | 6.31 | 59.7 | 519 | 0.26 | 0.068 | 0.839 | change in fluorescence intensity on addition of DNA oligomer [2]: Decrease in fluorescence intensity |
| COc1ccc(-c2nc3ccccc3c3cc4ccccn4c23)cc1 [IQ 6, 6-(4-methoxyphenyl)indolizino[3,2-c]quinoline] |  |  |  |  |  |  |  |  | stability of fluorescence under irradiation with blue light ([5]; blue light for 2 hours): still stably exhibited fluorescence intensity; photostability: fluorescence over time ([5]; natural light, up to 6 hours): stably maintained in an aqueous solution up to 6 hours with almost no change; staining pattern compared with conventional dyes (cells): an aspect similar to RNA select for staining RNA; intracellular molecule recognized (HeLa cells): recognized intracellular RNA; intracellular organelles in which fluorescence is detected (HeLa cells): intensively distributed in cytoplasmic and nucleolus areas; solvent-dependent (environment-sensitive) tendency of the emission [4]: solvatochromic effect; peak emission (λmax) ([4]; ethanol solvent (EtOH)): 511 nm; quantum yield ([4]; in ethanol using coumarin 153 as a standard): 0.816 |

The next lines start with results.

| kmax em(nm) (PDEδ [1]) | λabs(nm) (PDEδ [1]) | pKd (PDEδ [3]) | Fluorescence Emission Intensity [4] | Peak emission wavelength λmax em(nm) [4] [nm] | Relative fluorescence Emission Intensitynorm [4] | quantum yield (Φ) ([4]; DW, standard Rhodamine 6G) | quantum yield (Φ) ([4]; EtOH, standard Coumarin 153) | Compound | further results |
| --- | --- | --- | --- | --- | --- | --- | --- | --- | --- |
|  |  | 6.37 |  |  |  |  |  | c1coc(-c2nc3ccccc3c3cc4ccccn4c23)c1 [compound 42] |  |
| 515 | 430 | 5.89 | 171.3 | 513 | 0.74 | 0.102 | 0.652 | COc1ccc(-c2nc3ccccc3c3cc4ccccn4c23)cc1OC [compound 8] | shift of maximum emission wavelength on addition of DNA oligomer [2]: wavelength to longer wavelength |
| 515 | 430 | 5.81 | 232.9 | 514 | 1.00 |  |  | c1ccc2c(-c3nc4ccccc4c4cc5ccccn5c34)cccc2c1 [compound 9] | Absorption coefficient (cm^−1M^−1) [4]: 11656 cm^−1M^−1; Absorption wavelength λex(nm) [4]: 405 nm; Emission wavelength λem(nm) [4]: 515 nm; λem (nm) ([4]; DMF): 478 nm; λem (nm) ([4]; DMSO): 514 nm; λem (nm) ([4]; EtOH): 465.5 nm; λem (nm) ([4]; EtOH:CHCl3 = 1:5): 467.5 nm; λem (nm) ([4]; H2O): 516 nm; λem (nm) ([4]; MC): 469 nm; Fluorescence quantum yield (Φ) [4]: 0.053 |
